Reference: patent US5856435A, “Nucleic acid-containing composition, its preparation and use” (Rhone-Poulenc Rorer SA, priority 1994, dated 1999)
In brackets after ≈: the same amount, converted by molar mass. Residues, ends and D or L forms follow the SMILES beside them.

Columns and labels:
[1] = Encapsulation of the nucleic acid INV-Val13 in nanoparticles of PLA50(30)-PEG(2)
Text: The nanoparticles used in this example are diblock copolymers consisting of a poly(D,L-lactic acid) linked via an ester bond to a poly(ethylene glycol): PLAp(M)-PEG(N) where M and N are, respectively, the average molecular masses (in kD) of the PLA and the PEG, and p is the percentage of L-lactic acid. The 2 types of nanoparticles used are PLA50(30)-PEG(2) and PLA50(30)-PEG(5). These copolymers may be synthesized by any technique known to a person skilled in the art (see, for example, EP 520,889).
The nucleic acids were treated with phage T4 polynucleotide kinase (Biolabs) in the presence of [γ-^32 P]ATP (Amersham) in a kinase buffer. After 30 min of incubation at 37° C., the nucleic acid was separated from unreacted ATP by application to a Sephadex G25 column (Quick Spin) and centrifugation.
This Example describes the encapsulation of the nucleic acid INV-Val13 in a nanoparticle of PLA50 (30)-PEG(2) in the presence or absence of oligopeptide (LKKL)10 (SEQ ID NO:6).
The polymer used, (PLA50(30)-PEG(2)), was solubilized in 1 ml of acetone at a concentration of 10 g/l. The isotopic dilution of the nucleic acid (final concentration 10^-5 M) was added, followed by the oligopeptide (at a concentration such that R=1). The organic solution obtained was then poured dropwise into 5 ml of an aqueous solution (50 mM Tris-HCl buffer pH 7.4) with stirring. […]

[2] = test system: T24/EJ cell line originating from a human bladder carcinoma; assay: Transfer of nucleic acid into cells: inhibition of cell proliferation induced by the antisense nucleic acid; type: cell-based; settings: naked, 30 μM, 72 or 96 hours of culture
Experimental: The tests of nucleic acid transfer described in this example were performed on a cell line originating from a human bladder carcinoma, designated T24/EJ, available in the ATCC. The cells were cultured in MEM-EAGLE medium ("minimum essential medium", Biological Industries) supplemented with L-glutamine ((5 mM), streptomycin (50 u/ml) and penicillin (50 u/ml) in the presence of 7% of foetal calf serum decomplemented for 30 min at 60° C.
The cells (1500/well) were inoculated into 96-well microplates, in the absence or presence of nucleic acid, encapsulated or otherwise in nanoparticles, in a total volume of 100 μl. Each point was performed in triplicate. […]
In the first place, the incorporation of tritiated thymidine, which was determined after adding 2 μCi of 3 H thymidine per well. After 6 hours of incubation in an incubator, the plates were washed with a Skatron apparatus (Lier, Norway), the DNA was collected on a filter and each disc of the filter (corresponding to each well of the plate) was placed in scintillation fluid and then counted in a counter (LKB Wallac 1211 Minibeta). […]
Next, cell proliferation was evaluated by counting the cells in a Malassez cell. For this purpose, the supernatant was removed, the cells were trypsinized (10 min at 37° C.) and culture medium was added to them before they were counted.

physchem = settings: water
[3] = study of the dichroic spectra: secondary structures adopted by the cationic oligopeptides; type: physicochemical
Text: The capacity of the oligopeptides to form secondary structures may be verified by circular dichroism or in NMR, as shown in the examples.
Moreover, as shown in the Table below, a study of the dichroic spectra enabled the secondary structures adopted by the cationic oligopeptides used, in solution or after complexing, to be confirmed.

[4] = solubility of the oligopeptide in water
[5] = 50 mM phosphate buffer/0.2 M NaCl

| Compound | secondary structure (dichroic spectra) ([3]; 50 mM phosphate buffer) | secondary structure (dichroic spectra) [3, 5] | secondary structure (dichroic spectra) ([3]; Water/nucleic acid) | conformation in saline solution [3] | conformation in water ([3]; water) | secondary structure (dichroic spectra) ([3]; water) | further results |
| --- | --- | --- | --- | --- | --- | --- | --- |
| 3'-CACACCGACGGCG-5' (chemistry not given here; listed 3' to 5') [INV-Val13] | – | – | – | – | – | – | encapsulation yield of INV-Val13 in the nanoparticle ([1]; in the presence of oligopeptide (LKKL)10, R=1, nucleic acid 10^-5 M): 56%; encapsulation yield of INV-Val13 in the nanoparticle ([1]; without the oligopeptide, nucleic acid 10^-5 M): 5% |
| 3'-CGCGGCAGCCAC-5' (chemistry not given here; listed 3' to 5') [AS-Val12] | – | – | – | – | – | – | inhibition of cell proliferation [2]: 42% |
| CC(C)C[C@H](NC(=O)[C@H](CCCCN)NC(=O)[C@H](CCCCN)NC(=O)[C@H](CC(C)C)NC(=O)[C@H](CC(C)C)NC(=O)[C@H](CCCCN)NC(=O)[C@H](CCCCN)NC(=O)[C@H](CC(C)C)NC(=O)[C@H](CC(C)C)NC(=O)[C@H](CCCCN)NC(=O)[C@H](CCCCN)NC(=O)[C@H](CC(C)C)NC(=O)[C@H](CC(C)C)NC(=O)[C@H](CCCCN)NC(=O)[C@H](CCCCN)NC(=O)[C@H](CC(C)C)NC(=O)[C@H](CC(C)C)NC(=O)[C@H](CCCCN)NC(=O)[C@H](CCCCN)NC(=O)[C@H](CC(C)C)NC(=O)[C@H](CC(C)C)NC(=O)[C@H](CCCCN)NC(=O)[C@H](CCCCN)NC(=O)[C@H](CC(C)C)NC(=O)[C@H](CC(C)C)NC(=O)[C@H](CCCCN)NC(=O)[C@H](CCCCN)NC(=O)[C@H](CC(C)C)NC(=O)[C@H](CC(C)C)NC(=O)[C@H](CCCCN)NC(=O)[C@H](CCCCN)NC(=O)[C@H](CC(C)C)NC(=O)[C@H](CC(C)C)NC(=O)[C@H](CCCCN)NC(=O)[C@H](CCCCN)NC(=O)[C@H](CC(C)C)NC(=O)[C@H](CC(C)C)NC(=O)[C@H](CCCCN)NC(=O)[C@H](CCCCN)NC(=O)[C@@H](N)CC(C)C)C(=O)O [(LKKL)10, (H)-(Leucine-Lysine-Lysine-Leucine)10 -(OH)] (H-LKKLLKKLLKKLLKKLLKKLLKKLLKKLLKKLLKKLLKKL-OH) | α Helix | α Helix | α Helix | α-helical | unstructured | unstructured | solubility (physchem): 50 mg/mL (≈ 10.3 mM) |
| CC(C)C[C@H](NC(=O)[C@H](CCCCN)NC(=O)[C@H](CC(C)C)NC(=O)[C@H](CCCCN)NC(=O)[C@H](CC(C)C)NC(=O)[C@H](CCCCN)NC(=O)[C@H](CC(C)C)NC(=O)[C@H](CCCCN)NC(=O)[C@H](CC(C)C)NC(=O)[C@H](CCCCN)NC(=O)[C@H](CC(C)C)NC(=O)[C@H](CCCCN)NC(=O)[C@H](CC(C)C)NC(=O)[C@H](CCCCN)NC(=O)[C@H](CC(C)C)NC(=O)[C@H](CCCCN)NC(=O)[C@H](CC(C)C)NC(=O)[C@H](CCCCN)NC(=O)[C@H](CC(C)C)NC(=O)[C@H](CCCCN)NC(=O)[C@H](CC(C)C)NC(=O)[C@H](CCCCN)NC(=O)[C@H](CC(C)C)NC(=O)[C@H](CCCCN)NC(=O)[C@H](CC(C)C)NC(=O)[C@H](CCCCN)NC(=O)[C@H](CC(C)C)NC(=O)[C@H](CCCCN)NC(=O)[C@H](CC(C)C)NC(=O)[C@H](CCCCN)NC(=O)[C@H](CC(C)C)NC(=O)[C@H](CCCCN)NC(=O)[C@H](CC(C)C)NC(=O)[C@H](CCCCN)NC(=O)[C@H](CC(C)C)NC(=O)[C@H](CCCCN)NC(=O)[C@H](CC(C)C)NC(=O)[C@H](CCCCN)NC(=O)[C@@H](N)CC(C)C)C(=O)N[C@@H](CCCCN)C(=O)O [(LKLK)10, (H)-(Leucine-Lysine-Leucine-Lysine)10 -(OH)] (H-LKLKLKLKLKLKLKLKLKLKLKLKLKLKLKLKLKLKLKLK-OH) | β Sheet | β Sheet | β Sheet | β-sheet | unstructured | unstructured | solubility [4]: 100 mg/mL (≈ 20.6 mM) |
| CC(C)C[C@H](NC(=O)[C@H](CCCCN)NC(=O)[C@H](CCCCN)NC(=O)[C@@H]1CCCN1C(=O)[C@H](CC(C)C)NC(=O)[C@H](CCCCN)NC(=O)[C@H](CCCCN)NC(=O)[C@@H]1CCCN1C(=O)[C@H](CC(C)C)NC(=O)[C@H](CCCCN)NC(=O)[C@H](CCCCN)NC(=O)[C@@H]1CCCN1C(=O)[C@H](CC(C)C)NC(=O)[C@H](CCCCN)NC(=O)[C@H](CCCCN)NC(=O)[C@@H]1CCCN1C(=O)[C@H](CC(C)C)NC(=O)[C@H](CCCCN)NC(=O)[C@H](CCCCN)NC(=O)[C@@H]1CCCN1C(=O)[C@H](CC(C)C)NC(=O)[C@H](CCCCN)NC(=O)[C@H](CCCCN)NC(=O)[C@@H]1CCCN1C(=O)[C@H](CC(C)C)NC(=O)[C@H](CCCCN)NC(=O)[C@H](CCCCN)NC(=O)[C@@H]1CCCN1C(=O)[C@H](CC(C)C)NC(=O)[C@H](CCCCN)NC(=O)[C@H](CCCCN)NC(=O)[C@@H]1CCCN1C(=O)[C@H](CC(C)C)NC(=O)[C@H](CCCCN)NC(=O)[C@H](CCCCN)NC(=O)[C@@H]1CCCN1C(=O)[C@H](CC(C)C)NC(=O)[C@H](CCCCN)NC(=O)[C@H](CCCCN)NC(=O)[C@@H]1CCCN1)C(=O)O [(PKKL)10, (H)-(Proline-Lysine-Lysine-Leucine)10 -(OH), reference compound] (H-PKKLPKKLPKKLPKKLPKKLPKKLPKKLPKKLPKKLPKKL-OH) | unstructured | unstructured | unstructured | not structured | – | unstructured | – |
| Polylysine [reference compound] | – | – | – | not structured | – | – | – |
